Measurements reported in ChEMBL document CHEMBL2434821, “New phenstatin-fatty acid conjugates: synthesis and evaluation” (Bioorg Med Chem Lett, 2013).

Experiment: Cytotoxicity against human KB-3-1 cells assessed as cell survival at 0.5 uM after 72 hrs by MTT assay relative to control
Conditions: KB 3-1, 72 h

## CCCCC/C=C\C/C=C\CCCCCCCC(=O)Oc1cc(C(=O)c2cc(OC)c(OC)c(OC)c2)ccc1OC
  cell survival at 0.5 µM: 20%
